Test results reported in US10781224B2, “Bis(oxymethyl)phosphinic acid and biogenic metal salts thereof as regulators of plant growth and development” (priority 2016, dated 2020).

Test system: winter wheat (Vershin variety)
Assay: Winter wheat seed treatment with BHMPA salts: germinating power (length and mass of roots and sprouts)
Type: in vivo
In short: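 Seeds (50 per Petri dish on two layers of filter paper) soaked 1 h in BHMPA or its Ca, Mg, Na, Co, Mn, Cu or Zn salts at 1·10^−6-1·10^−12%, with water controls. Germination energy read on day 4, germination on day 8 (wheat) or day 7 (rice, corn), as % means of four replicates. Germinating power taken as root and sprout length plus wet and dry mass per 100 seedlings.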

[1] = comparative study, 1·10^−9% solution

SMILES: O=P([O-])(CO)CO.[Na+] [Na-salt, Sodium BHMPA Salt]
- effectiveness on germinating power (1·10^−6% and 1·10^−12% solutions): marginally effective
- Length, root (1·10^−6% solution): 5.0 cm
- Length, root, + % to control (1·10^−6% solution): −5.7%
- Length, sprout (1·10^−6% solution): 6.0 cm
- Length, sprout, + % to control (1·10^−6% solution): −1.6%
- Mass, dry, root (1·10^−6% solution): 0.37 g/100 plantlings
- Mass, dry, root, + % to control (1·10^−6% solution): −10%
- Mass, dry, sprout (1·10^−6% solution): 0.54 g/100 plantlings
- Mass, dry, sprout, + % to control (1·10^−6% solution): −3.6%
- Mass, wet, root (1·10^−6% solution): 2.35 g/100 plantlings
- Mass, wet, root, + % to control (1·10^−6% solution): −3.7%
- Mass, wet, sprout (1·10^−6% solution): 4.51 g/100 plantlings
- Mass, wet, sprout, + % to control (1·10^−6% solution): −3.6%
- Length, root (1·10^−7% solution): 5.3 cm
- Length, root, + % to control (1·10^−7% solution): 0%
- Length, sprout (1·10^−7% solution): 6.3 cm
- Length, sprout, + % to control (1·10^−7% solution): 3.3%
- Mass, dry, root (1·10^−7% solution): 0.45 g/100 plantlings
- Mass, dry, root, + % to control (1·10^−7% solution): 10%
- Mass, dry, sprout (1·10^−7% solution): 0.56 g/100 plantlings
- Mass, dry, sprout, + % to control (1·10^−7% solution): 0%
- Mass, wet, root (1·10^−7% solution): 2.58 g/100 plantlings
- Mass, wet, root, + % to control (1·10^−7% solution): 5.7%
- Mass, wet, sprout (1·10^−7% solution): 5.03 g/100 plantlings
- Mass, wet, sprout, + % to control (1·10^−7% solution): 7.5%
- Length, root (1·10^−8% solution): 5.6 cm
- Length, root, + % to control (1·10^−8% solution): 5.7%
- Length, sprout (1·10^−8% solution): 6.7 cm
- Length, sprout, + % to control (1·10^−8% solution): 10%
- Mass, dry, root (1·10^−8% solution): 0.47 g/100 plantlings
- Mass, dry, root, + % to control (1·10^−8% solution): 14.6%
- Mass, dry, sprout (1·10^−8% solution): 0.63 g/100 plantlings
- Mass, dry, sprout, + % to control (1·10^−8% solution): 12.5%
- Mass, wet, root (1·10^−8% solution): 2.73 g/100 plantlings
- Mass, wet, root, + % to control (1·10^−8% solution): 12%
- Mass, wet, sprout (1·10^−8% solution): 5.37 g/100 plantlings
- Mass, wet, sprout, + % to control (1·10^−8% solution): 15%
- Length, root (1·10^−9% solution): 5.7 cm
- Length, root, + % to control (1·10^−9% solution): 7.5%
- Length, sprout (1·10^−9% solution): 6.9 cm
- Length, sprout, + % to control (1·10^−9% solution): 13%
- Mass, dry, root (1·10^−9% solution): 0.56 g/100 plantlings
- Mass, dry, root, + % to control (1·10^−9% solution): 36.5%
- Mass, dry, sprout (1·10^−9% solution): 0.69 g/100 plantlings
- Mass, dry, sprout, + % to control (1·10^−9% solution): 23%
- Mass, wet, root (1·10^−9% solution): 3.21 g/100 plantlings
- Mass, wet, root, + % to control (1·10^−9% solution): 31.5%
- Mass, wet, sprout (1·10^−9% solution): 5.41 g/100 plantlings
- Mass, wet, sprout, + % to control (1·10^−9% solution): 15.6%
- Length, root (1·10^−10% solution): 5.6 cm
- Length, root, + % to control (1·10^−10% solution): 5.7%
- Length, sprout (1·10^−10% solution): 6.5 cm
- Length, sprout, + % to control (1·10^−10% solution): 6.5%
- Mass, dry, root (1·10^−10% solution): 0.46 g/100 plantlings
- Mass, dry, root, + % to control (1·10^−10% solution): 12%
- Mass, dry, sprout (1·10^−10% solution): 0.61 g/100 plantlings
- Mass, dry, sprout, + % to control (1·10^−10% solution): 9%
- Mass, wet, root (1·10^−10% solution): 2.66 g/100 plantlings
- Mass, wet, root, + % to control (1·10^−10% solution): 9%
- Mass, wet, sprout (1·10^−10% solution): 5.33 g/100 plantlings
- Mass, wet, sprout, + % to control (1·10^−10% solution): 14%
- Length, root (1·10^−11% solution): 5.5 cm
- Length, root, + % to control (1·10^−11% solution): 3.8%
- Length, sprout (1·10^−11% solution): 6.4 cm
- Length, sprout, + % to control (1·10^−11% solution): 5%
- Mass, dry, root (1·10^−11% solution): 0.43 g/100 plantlings
- Mass, dry, root, + % to control (1·10^−11% solution): 5%
- Mass, dry, sprout (1·10^−11% solution): 0.60 g/100 plantlings
- Mass, dry, sprout, + % to control (1·10^−11% solution): 7%
- Mass, wet, root (1·10^−11% solution): 2.57 g/100 plantlings
- Mass, wet, root, + % to control (1·10^−11% solution): 5.3%
- Mass, wet, sprout (1·10^−11% solution): 5.11 g/100 plantlings
- Mass, wet, sprout, + % to control (1·10^−11% solution): 9%
- Length, root (1·10^−12% solution): 5.4 cm
- Length, root, + % to control (1·10^−12% solution): 2%
- Length, sprout (1·10^−12% solution): 6.3 cm
- Length, sprout, + % to control (1·10^−12% solution): 3.3%
- Mass, dry, root (1·10^−12% solution): 0.42 g/100 plantlings
- Mass, dry, root, + % to control (1·10^−12% solution): 2%
- Mass, dry, sprout (1·10^−12% solution): 0.58 g/100 plantlings
- Mass, dry, sprout, + % to control (1·10^−12% solution): 3.6%
- Mass, wet, root (1·10^−12% solution): 2.41 g/100 plantlings
- Mass, wet, root, + % to control (1·10^−12% solution): −1.2%
- Mass, wet, sprout (1·10^−12% solution): 5.03 g/100 plantlings
- Mass, wet, sprout, + % to control (1·10^−12% solution): 7.5%
- Length, root [1]: 8.7 cm
- Length, root, + % to control [1]: 0%
- Length, sprout [1]: 6.4 cm
- Length, sprout, + % to control [1]: 3%
- Mass, dry, root [1]: 0.64 g/100 plantlings
- Mass, dry, root, + % to control [1]: 3%
- Mass, dry, sprout [1]: 0.53 g/100 plantlings
- Mass, dry, sprout, + % to control [1]: 4%
- Mass, wet, root [1]: 4.19 g/100 plantlings
- Mass, wet, root, + % to control [1]: 16%
- Mass, wet, sprout [1]: 4.73 g/100 plantlings
- Mass, wet, sprout, + % to control [1]: 19%
